# Test results: patent US5626864A, “Preparation of colloidal aqueous solutions of active substances of low solubility” (priority 1993, dated 1997)
# Structures can show the parent of a compound that is named as a salt. Where two headings read alike, the source gives them in different places.
# Legend:
# [1] = eg. intravenous administration; cited from earlier work
# [2] = cited from earlier work
# [3] = Sterile filtration through a 0.2 μm filter (criterion for successful solubilization); type: physicochemical
# Procedure: The following examples illustrate the invention. The criterion for successful solubilization is the possibility of sterile filtration through a 0.2 μm filter.
# (§1) 40 mg of Z were dissolved in 10 ml of dichloromethane/methanol (9+1). All the solvent was removed again from the solution in a rotary evaporator under reduced pressure. 8 ml of a buffer solution (consisting of o-phsophoric acid [0.01 M] and sucrose [0.265 M] and EDTA disodium salt [0.1 mg/ml], pH about 1.9) were added to the residue, and the flask was rotated on the rotary evaporator (without reducing the pressure) with the water at 50° C for 1 h. […] Cooling to room temperature was followed by titration with 2 molar sodium hydroxide solution to pH 6.8, and the total volume was then made up to 10 ml with the abovementioned buffer solution (pH 6.8; titrated with NaOH). […] The clear supernatant was filtered through a 0.2 micrometer syringe filter, and the active substance concentration in this solution was determined by spectrophotometry.
# (§2) The experiment was carried out like experiment A but 1.0 g of phospholipid (egg lecithin E 100, from Lipoid KG, Ludwigshafen) was weighed in addition to the active substance.
# (§3) The experiment was carried out like experiment B, but after addition of the buffer solution (pH 1.9) and stirring at 50° C. (1 h), 100 microliters of a dilute aqueous solution of glacial acetic acid (120.1 g/l) were added, and this solution was then titrated to pH 4.6 with sodium hydroxide solution (2 molar).
# The pH was adjusted to 4.8.
# [4] = Physical stability of the solutions (precipitation / flocculation); type: physicochemical
# Procedure: as §1, with “spectrophotometry. The active substance content in this solution was below 0.1 mg/ml.” for “spectrophotometry.”
# as §2
# The active substance content of the solution which had been titrated to pH 6.8 and sterilized by filtration was 4.0 mg/ml. The solution slowly flocculated out after about 12-24 h, both at room temperature and in a refrigerator.
# as §3
# [5] = Active substance content of solution after 0.2 μm filtration (spectrophotometry); type: physicochemical
# Procedure: A derivative of these bisnaphthalimides [drawing 1] was used to investigate the solubility in aqueous formulations as follows: […]
# as §1, with “spectrophotometry. The active substance content in this solution was below 0.1 mg/ml.” for “spectrophotometry.”
# as §2, §3
# [6] = Comparative Example: like Example 1, experiment C
molecule,measurement,setting,value
CC(C)[C@@](C#N)(CCCN(C)CCc1ccccc1)c1ccccc1 [levemopamil hydrochloride],local intolerance on administration,[1],show problems due to local intolerance on administration (eg. vein irritation on intravenous administration)
same,solubility in water,[2]; in words,adequately soluble in water
dolastatin 15,sterile filtration,"[3]; Example 3: active substance 10 mg/ml, phospholipid 100 mg/ml",It was possible to sterilize the solution by filtration
same,solubility in water,[2]; in words,low solubility in water
CCS(=O)(=O)Oc1ccc2c(C)c(C)c(=O)oc2c1 [esuprone],filtration through 0.2 μm or 0.45 μm filter,[3]; [6],could not be filtered either through a 0.2 μm filter or through a 0.45 μm filter
same,particle size of resulting solution,[3]; [6],contained large colloidal particles
same,solubility in water,[2]; water,15 µg/mL
O=C1c2cccc3cc([N+](=O)[O-])cc(c23)C(=O)N1CCCCNCCCN1C(=O)c2cccc3cc([N+](=O)[O-])cc(c23)C1=O [Z],dissolution in acidic buffer,"[4]; Experiment A: buffer pH about 1.9, 50° C, 1 h, no phospholipid",It was possible in this way to dissolve a considerable portion of the active substance
same,precipitation on titration,"[4]; Experiment A: no phospholipid, cooled, titrated to pH 6.8",Most of the active substance precipitated again
same,time to flocculation of solution,"[4]; Experiment B: egg lecithin, pH 6.8, room temperature and refrigerator",12 to 24 h
same,stability of solution,"[4]; Experiment C: egg lecithin, pH 4.6, room temperature and refrigerator",stable for weeks without flocculating out
same,solubility,"[5]; Experiment C: egg lecithin E 100, acetic acid, titrated to pH 4.6, sterile filtration",4000 µg/mL
same,solubility,"[5]; egg lecithin e 100 solution, Experiment B (comparative): 1.0 g egg lecithin E 100, titrated to pH 6.8, sterilized by filtration",4000 µg/mL
same,solubility,"[5]; sucrose/phosphoric acid buffer, Experiment A (comparative): no phospholipid, sucrose/phosphoric acid, titrated to pH 6.8, 0.2 μm filtered",< 100 µg/mL
O=C(C(c1ccccc1)c1ccccc1)N1CCN(CC(O)COc2cccc3ncccc23)CC1 (stereo not drawn),sterile filtration,[3],It was possible to sterilize the resulting solution by filtration
